In patent publication US7759369B2, “Pyridine compounds for the treatment of prostaglandin mediated diseases” (Glaxo Group Limited, priority 2004, dated 2010):

Experiments:
EP3 receptors = target: T1, EP3 receptors (Homo sapiens, UniProt P43115); assay: human EP3 calcium mobilisation assay (CHO-K1 cells, PGE2, FLIPR); format: cell-based; settings: free bases or sodium salts; averages of a number of experiments; read-out: functional pKi value, human EP3 calcium mobilisation assay (converted)
T1 construct: expressed in transfected cells; host or cells: CHO-K1
T1 sequence (P43115 1-390): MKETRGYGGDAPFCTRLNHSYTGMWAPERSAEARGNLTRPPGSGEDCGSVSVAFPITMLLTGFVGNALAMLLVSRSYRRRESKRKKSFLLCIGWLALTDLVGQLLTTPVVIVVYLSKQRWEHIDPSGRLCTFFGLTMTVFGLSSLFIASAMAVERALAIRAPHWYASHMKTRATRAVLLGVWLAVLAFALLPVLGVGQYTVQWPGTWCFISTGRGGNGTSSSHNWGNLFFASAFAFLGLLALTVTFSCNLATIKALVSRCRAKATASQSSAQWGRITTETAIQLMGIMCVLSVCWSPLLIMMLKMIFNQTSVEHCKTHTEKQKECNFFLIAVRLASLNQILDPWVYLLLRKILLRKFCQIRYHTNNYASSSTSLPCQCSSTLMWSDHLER
Experimental: (§1) Briefly, the antagonist properties of compounds are assessed by their ability to inhibit the mobilisation of intracellular calcium ([Ca^2+]i) in response to activation of EP1 or EP3 receptors by the natural agonist hormone prostaglandin E2 (PGE2). Increasing concentrations of antagonist reduce the amount of calcium that a given concentration of PGE2 can mobilise. The net effect is to displace the PGE2 concentration-effect curve to higher concentrations of PGE2. The amount of calcium produced is assessed using a calcium-sensitive fluorescent dye such as Fluo-4, AM and a suitable instrument such as a Fluorimetric Imaging Plate Reader (FLIPR). Increasing amounts of [Ca^2+]i produced by receptor activation increase the amount of fluorescence produced by the dye and give rise to an increasing signal. The signal may be detected using the FLIPR instrument and the data generated may be analysed with suitable curve-fitting software.
(§2) The human EP1 or EP3 calcium mobilisation assay (hereafter referred to as ‘the calcium assay’) utilises Chinese hamster ovary-K1 (CHO-K1) cells into which a stable (pCIN; BioTechniques 20 (1996): 102-110) vector containing either EP1 or EP3 cDNA has previously been transfected. Cells are cultured in suitable flasks containing culture medium such as DMEM:F-12 supplemented with 10% v/v foetal calf serum, 2 mM L-glutamine, 0.25 mg/ml geneticin, 100 μM flurbiprofen and 10 µg/ml puromycin.
(§3) For assay, cells are harvested using a proprietary reagent that dislodges cells such as Versene. Cells are re-suspended in a suitable quantity of fresh culture media for introduction into a 384-well plate. Following incubation for 24 hours at 37° C. the culture media is replaced with a medium containing Fluo-4 and the detergent pluronic acid, and a further incubation takes place. Concentrations of compounds are then added to the plate in order to construct concentration-effect curves. This may be performed on the FLIPR in order to assess the agonist properties of the compounds. Concentrations of PGE2 are then added to the plate in order to assess the antagonist properties of the compounds.
(§4) The data so generated may be analysed by means of a computerised curve-fitting routine. The concentration of compound that elicits a half-maximal inhibition of the calcium mobilisation induced by PGE2 (pIC50) may then be estimated.

EP1 receptors [1] = target: T2, EP1 receptors (Homo sapiens, UniProt P34995); assay: human EP1 calcium mobilisation assay (CHO-K1 cells, PGE2, FLIPR); format: cell-based; design: expressed in transfected cells; host or cells: CHO-K1; settings: free bases or sodium salts; averages of a number of experiments; read-out: functional pKi value, human EP1 calcium mobilisation assay (converted)
T2 sequence (P34995 1-402): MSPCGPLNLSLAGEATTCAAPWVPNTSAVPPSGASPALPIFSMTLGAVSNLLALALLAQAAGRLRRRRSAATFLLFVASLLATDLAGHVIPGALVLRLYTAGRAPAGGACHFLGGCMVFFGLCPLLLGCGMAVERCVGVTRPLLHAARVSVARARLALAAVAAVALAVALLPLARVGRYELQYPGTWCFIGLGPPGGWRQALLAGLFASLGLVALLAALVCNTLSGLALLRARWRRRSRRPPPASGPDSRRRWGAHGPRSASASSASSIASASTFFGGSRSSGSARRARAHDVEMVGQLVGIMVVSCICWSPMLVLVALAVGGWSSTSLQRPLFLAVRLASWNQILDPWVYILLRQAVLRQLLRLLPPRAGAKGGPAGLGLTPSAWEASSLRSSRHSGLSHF
Experimental: as §1, §2, §3, §4

TP receptor = target: T3, TP receptor (Homo sapiens, UniProt P21731); assay: human TP calcium mobilisation assay (CHO-K1 cells, U46619, FLIPR); format: cell-based; settings: free bases or sodium salts; read-out: functional pKi, human TP calcium mobilisation assay (converted)
T3 construct: expressed in transfected cells; host or cells: CHO-K1
T3 sequence (P21731 1-343): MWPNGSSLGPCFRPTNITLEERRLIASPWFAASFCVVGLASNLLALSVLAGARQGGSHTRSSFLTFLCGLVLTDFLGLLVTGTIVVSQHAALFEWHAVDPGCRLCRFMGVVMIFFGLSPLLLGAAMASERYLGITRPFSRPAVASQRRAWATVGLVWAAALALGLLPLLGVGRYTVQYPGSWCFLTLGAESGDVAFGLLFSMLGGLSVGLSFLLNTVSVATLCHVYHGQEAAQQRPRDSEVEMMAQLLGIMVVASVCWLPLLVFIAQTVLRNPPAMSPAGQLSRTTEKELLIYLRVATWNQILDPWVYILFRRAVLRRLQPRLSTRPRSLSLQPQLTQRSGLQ
Experimental: as §1, with “To determine if a compound has agonist or antagonist activity at the TP receptor a functional calcium mobilisation assay may be performed. Briefly,” for “Briefly,”, “TP” for “EP1 or EP3”, “stable TXA2 mimetic U46619 (9,11-dideoxy-11α,9α-epoxy-methanoprostaglandin F2 α; commercially available from e.g Sigma-Aldrich).” for “natural agonist hormone prostaglandin E2 (PGE2).”, “U46619” for “PGE2”, “curve.” for “curve to higher concentrations of PGE2.”, “software. The agonist activity of the compounds are determined by their ability to cause an increase in intracellular mobilisation in the absence of U46619.” for “software.”
as §2, with “TP” for “EP1 or EP3”, “assay” for “assay (hereafter referred to as ‘the calcium assay’)”, “TP” for “either EP1 or EP3”, “μg/ml” for “µg/ml”
as §3, with “96-well” for “384-well”, “U46619” for “PGE2”
The data so generated may be analysed by means of a computerised curve-fitting routine. The concentration of compound that elicits a half-maximal inhibition of the calcium mobilisation induced by U46619 (plC50) may then be estimated, and the percentage activation caused by the compounds directly can be used to determine if there is any agonism present.

EP1 receptors [2] = target: T2, EP1 receptors; assay: Binding assay for the human prostanoid EP1 receptor (competition with [3H]-PGE2); design: expressed in transfected cells; host or cells: CHO-K1 (membrane fraction); settings: averages of a number of experiments; Example 3 as sodium salt; read-out: pIC50 value in the binding assay for the human prostanoid EP1 receptor (converted)
Experimental: Binding Assay for the Human Prostanoid EP1 Receptor
Competition assay using [^3H]-PGE2.
Compound potencies are determined using a radioligand binding assay. In this assay compound potencies are determined from their ability to compete with tritiated prostaglandin E2 ([^3H]-PGE2) for binding to the human EP1 receptor.
This assay utilises Chinese hamster ovary-K1 (CHO-K1) cells into which a stable vector containing the EP1 cDNA has previously been transfected. Cells are cultured in suitable flasks containing culture medium such as DMEM:F-12 supplemented with 10% v/v foetal calf serum, 2 mM L-glutamine, 0.25 mg/ml geneticin, 10 μg/ml puromycin and 10 μM indomethacin.
Cells are detached from the culture flasks by incubation in calcium and magnesium free phosphate buffered saline containing 1 mM disodium ethylenediaminetetraacetic acid (Na2EDTA) and 10 μM indomethacin for 5 min. The cells are isolated by centrifugation at 250×g for 5 mins and suspended in an ice cold buffer such as 50 mM Tris, 1 mM Na2EDTA, 140 mM NaCl, 10 μM indomethacin (pH 7.4). The cells are homogenised using a Polytron tissue disrupter (2×10s burst at full setting), centrifuged at 48,000×g for 20 mins and the pellet containing the membrane fraction is washed (optional) three times by suspension and centrifugation at 48,000×g for 20 mins. The final membrane pellet is suspended in an assay buffer such as 10 mM 2-[N-morpholino]ethanesulphonic acid, 1 mM Na2EDTA, 10 mM MgCl2 (pH 6). Aliquots are frozen at −80° C. until required.
For the binding assay the cell membranes, competing compounds and [^3H]-PGE2 (3 nM final assay concentration) are incubated in a final volume of 100 μl for 30 min at 30° C. All reagents are prepared in assay buffer. Reactions are terminated by rapid vacuum filtration over GF/B filters using a Brandell cell harvester. The filters are washed with ice cold assay buffer, dried and the radioactivity retained on the filters is measured by liquid scintillation counting in Packard TopCount scintillation counter.
The data are analysed using non linear curve fitting techniques to determine the concentration of compound producing 50% inhibition of specific binding (IC50).

Ki (EP3 receptors) [µM]	Ki (EP1 receptors [1]) [µM]	Ki (TP receptor) [µM]	IC50 (EP1 receptors [2]) [µM]	SMILES
> 10	< 1	> 1	–	CC(C)COc1ccc(Cl)cc1Cc1cccc(C(=O)O)n1 [Example 15, Sodium 6-({5-chloro-2-[(2-methylpropyl)oxy]phenyl}methyl)-2-pyridinecarboxylate]
–	–	–	> 1	O=C(O)c1cncc(Cc2cc(Cl)ccc2OCc2c(F)cccc2F)c1 [Example 27, Sodium 5-[(5-chloro-2-{[(2,6-difluorophenyl)methyl]oxy}phenyl)methyl]-3-pyridinecarboxylate]
–	> 1	–	> 1	CC(C)(C)Oc1ccc(Cl)cc1Cc1cccc(C(=O)O)n1 [Example 41, 6-({5-Chloro-2-[(1,1-dimethylethyl)oxy]phenyl}methyl)-2-pyridinecarboxylic acid]
